{"source": "patent EP1464336A1", "about": "“Use of tryprostatin A for the reversal of cancer drug resistance” (Humboldt-Universität zu Berlin, priority 2003, dated 2004)", "key": {"[1]": {"test_system": "drug-sensitive, parental cell line MCF-7", "experiment": "Mitoxantrone accumulation assay (flow cytometry)", "type": "cell-based, human", "conditions": "increasing modulator concentrations", "procedure": "(§1) Cellular mitoxantrone accumulation was determined according to the procedure described in Lage H et al., FEBS Lett 2001;503:179-84. Briefly, 4 x 10^5 cells were seeded out in 6-well plates 78 hours prior to the experiment. Incubation with mitoxantrone (0, 1,5 and 10 µg/ml) was performed for 60 minutes at 37°C and 70-80 % cellular confluence. For kinetics of intracellular enrichment of mitoxantrone, cells were exposed to 10 µg/ml mitoxantrone for 0, 5, 10 and 60 min. Cells were washed with ice-cold PBS, trypsinized and resuspended in 4 °C PBS at a concentration of 4 x 10^5 cells/ml. Intracellular fluorescence of mitoxantrone was determined by flow cytometry (Becton-Dickinson, San Jose, CA). The cells were excited at 480 nm and emission was measured at 630 nm. A minimum of 10^4 cells was analyzed for each sample. All assays were performed at least in three independent experiments, each time with triplicate wells.\n(§2) To provide confirmation that the observed resensitization to mitoxantrone of BCRP-overexpressing cells was indeed the result of BCRP inhibition by TPS-A, a mitoxantrone accumulation assay was performed. The known so-called \"multispecific\" MDR modulator GF120918, inhibiting P-gp- and BCRP activity, was used as a positive control for P-gp- and BCRP antagonism."}, "[2]": {"test_system": "BCRP", "experiment": "Mitoxantrone accumulation assay (flow cytometry)", "type": "cell-based, human", "conditions": "human, probe mitoxantrone; 1 µM GF120918 (Fig 4); read-out: mitoxantrone accumulation inhibiting effect", "procedure": "as §1, §2"}, "[3]": {"test_system": "parental, drug-sensitive gastric carcinoma cell variant EPG85-257P", "experiment": "Mitoxantrone accumulation assay (flow cytometry)", "type": "cell-based, human", "conditions": "GF120918 (Fig 4)", "procedure": "as §1, §2"}, "[4]": {"test_system": "P-gp", "experiment": "Mitoxantrone accumulation assay (flow cytometry)", "type": "cell-based, human", "conditions": "human, EPG85-257RDB cells (P-gp-expressing, classical MDR variant), probe mitoxantrone; 1 µM GF120918 (Fig 4); read-out: inhibition of mitoxantrone pump activity", "procedure": "as §1, §2"}, "[5]": {"test_system": "MCF-7/AdrVp", "experiment": "Mitoxantrone accumulation assay (flow cytometry)", "type": "cell-based, human", "conditions": "1 µM GF120918", "procedure": "as §1, §2"}, "[6]": {"test_system": "BCRP-transfected cell variant MCF-7/BCRP clone 8", "experiment": "Mitoxantrone accumulation assay (flow cytometry)", "type": "cell-based, human", "conditions": "1 µM GF120918; compared to drug accumulation level in the untreated, parental control cell line (Fig 4B)", "procedure": "as §1, §2"}, "[7]": {"test_system": "drug-sensitive and drug-resistant gastric and breast cancer cell lines", "experiment": "Cytotoxicity of the MDR modulators alone (SRB proliferation assay)", "type": "cell-based, human", "procedure": "(§3) Modulation of chemoresistance was tested using a proliferation assay based on sulforhodamine B (SRB), a protein-binding reagent (Skehan P et al., J Natl Cancer Inst 1990;82:1107-12), as described in Lage H et al., Int J Hyperthermia 2000;16:291-303; Lage H et al., FEBS Lett 2001;503:179-84; Lage H et al., FEBS Lett 2001;494:54-9. In each experiment, 350 cells per well were seeded in the presence or absence of TPS-A in 96-well plates in complete medium and allowed to attach overnight. Mitoxantrone or daunorubicin were added in a dilution series in triplicate wells. After 5 days, when unselected wells were still subconfluent, incubation was terminated by replacing the medium with 10 % trichloroacetic acid, followed by incubation at 4 °C for 1 h. After samples were washed 5 times with water and air-dried, 50 µl 0.4 % SRB (Sigma, St. Louis, MO) in 1 % acetic acid was added and samples were incubated for 10 min at room temperature. Unbound dye was eliminated by washing the plates 5 times with 1 % acetic acid. After air-drying and re-solubilisation of the protein-bound dye in 10 mM Tris-HCl (pH 8.0), absorbance was quantified at 562.5 nm. To determine the IC50-value, the absorbance difference of control cells without drug was set to be 100 %. Linear regression of data was done for the linear part of the curve, and IC50-values were calculated from multiple, at least three independent experiments for each cell line.\nThe cytotoxicity of the MDR modulators TPS-A and GF120918 on drug-sensitive and drug-resistant gastric and breast cancer cell lines was initially assessed."}, "[8]": {"test_system": "control cells (EPG85-257P)", "experiment": "C6-NBD-PS outward translocation assay", "type": "cell-based, human", "conditions": "10 µM inhibitor; 30 minutes at 37°C (Fig. 8)", "procedure": "(§4) To measure redistribution of C6-NBD-PS from the cytoplasmic to the exoplasmic leaflet, labelling of the cytoplasmic leaflet is preconditional. Previously, we have introduced a method to achieve efficient labeling of the plasma membrane inner leaflet of the gastric carcinoma cell line EPG85-257 (Pohl, A., Lage, H., Müller, P., Pomorksi, T., and Herrmann. A. (2002) Biochem. J. 365, 259-268). Briefly, cells were preincubated with or without MDR inhibitors, labelled with 5 µM C6-NBD-PS, and incubated at 20°C for 30 minutes to allow inward movement of the NBD analogue. C6-NBD-PS remaining on the cell surface was extracted twice by incubation with 2% (w/v) BSA in mPBS for 10 minutes on ice. Before starting the outward translocation assay, the medium was removed, and cells were washed with ice-cold mPBS. For t=0', ice-cold medium containing 2% (w/v) BSA and 5 mM DFP ( = diisopropyl fluoro-phosphate) in mPBS with or without inhibitor was immediately added to the cell dish for 10 minutes. To measure C6-NBD-PS outward translocation, medium prewarmed to 37°C was added to the dish, and cells were incubated at 37°C for 30 minutes (t = 30'). Removal of the BSA-containing media and a second extraction with 2% BSA in mPBS for 10 minutes terminated incubations, followed by lipid analysis.\n(§5) After the incubations, the second BSA back exchange medium was pooled with the first, and cells scraped into mPBS. For analysis of outward translocation and of metabolic conversion of C6-NBD-PS, lipids from both scraped cells and media were extracted with isopropanol/chloroform/(5.5:1, v/v) to prevent substantial loss into the aqueous phase. Samples were centrifuged at 780 g for 5 minutes, the supernatant transferred into new glass tubes and dried, dissolved in chloroform/methanol (1:1) and quantified spectroscopically. For C6-NBD-PC analysis, lipids from both cells and incubation media were extracted by the method of Bligh and Dyer (Bligh, E., and Dyer, W. (1959) Can. J Biochem. Physiol. 37, 911-917) using 20 mM acetic acid in the aqueous phase. After 2-D separation [I, chloroform/methanol/25% ammonium hydroxide (65:25:4, v/v); II, chloroform/acetone/methanol/acetic acid/water (10:4:2:2:1, v/v)] on thin layer chromatography plates, fluorescent lipid spots were visualized under ultraviolet light, scraped, and quantified as described before (Pomorski, T., Müller, P., Zimmermann, B., Burger, K., Devaux, P., and Herrmann, A. (1996) J. Cell Sci. 109, 687-698)."}, "[9]": {"test_system": "MDR1 Pgp overexpressing subline (EPG85-257RDB)", "experiment": "C6-NBD-PS outward translocation assay", "type": "cell-based, human", "conditions": "10 µM inhibitor; 30 minutes at 37°C (Fig. 8)", "procedure": "as §4, §5"}, "[10]": {"test_system": "BCRP overexpressing cells (EPG85-257RNOV)", "experiment": "C6-NBD-PS outward translocation assay", "type": "cell-based, human", "conditions": "pretreatment with 10 µM inhibitor; 30 minutes at 37°C (Fig. 8)", "procedure": "as §4, §5"}, "[11]": {"test_system": "gastric and breast carcinoma cell variants", "experiment": "Modulation of chemoresistance to mitoxantrone or daunorubicin (SRB proliferation assay, IC50/DMF)", "type": "cell-based, human", "procedure": "as §3\nThe cellular sensitivity to mitoxantrone and daunorubicin was assessed by determining the IC50 values without or with increasing concentrations of TPS-A or GF120918 as a positive control in the different cancer cell variants. Table 1 presents the data of TPS-A reversal of mitoxantrone and daunorubicin resistance in different gastric and breast carcinoma cell variants, respectively. […] In each case, the equation DMF=(IC50 (-CS))/(IC50 (+CS)) [formula] was used to calculate the dose modifying factor (DMF), comparing the IC50 values in the presence (+CS) or absence (-CS) of the corresponding chemosensitizer (CS) TPS-A or GF120918."}, "[12]": {"molecular_target": "P-gp (Homo sapiens, UniProt P08183)", "sequence (P08183 whole entry)": "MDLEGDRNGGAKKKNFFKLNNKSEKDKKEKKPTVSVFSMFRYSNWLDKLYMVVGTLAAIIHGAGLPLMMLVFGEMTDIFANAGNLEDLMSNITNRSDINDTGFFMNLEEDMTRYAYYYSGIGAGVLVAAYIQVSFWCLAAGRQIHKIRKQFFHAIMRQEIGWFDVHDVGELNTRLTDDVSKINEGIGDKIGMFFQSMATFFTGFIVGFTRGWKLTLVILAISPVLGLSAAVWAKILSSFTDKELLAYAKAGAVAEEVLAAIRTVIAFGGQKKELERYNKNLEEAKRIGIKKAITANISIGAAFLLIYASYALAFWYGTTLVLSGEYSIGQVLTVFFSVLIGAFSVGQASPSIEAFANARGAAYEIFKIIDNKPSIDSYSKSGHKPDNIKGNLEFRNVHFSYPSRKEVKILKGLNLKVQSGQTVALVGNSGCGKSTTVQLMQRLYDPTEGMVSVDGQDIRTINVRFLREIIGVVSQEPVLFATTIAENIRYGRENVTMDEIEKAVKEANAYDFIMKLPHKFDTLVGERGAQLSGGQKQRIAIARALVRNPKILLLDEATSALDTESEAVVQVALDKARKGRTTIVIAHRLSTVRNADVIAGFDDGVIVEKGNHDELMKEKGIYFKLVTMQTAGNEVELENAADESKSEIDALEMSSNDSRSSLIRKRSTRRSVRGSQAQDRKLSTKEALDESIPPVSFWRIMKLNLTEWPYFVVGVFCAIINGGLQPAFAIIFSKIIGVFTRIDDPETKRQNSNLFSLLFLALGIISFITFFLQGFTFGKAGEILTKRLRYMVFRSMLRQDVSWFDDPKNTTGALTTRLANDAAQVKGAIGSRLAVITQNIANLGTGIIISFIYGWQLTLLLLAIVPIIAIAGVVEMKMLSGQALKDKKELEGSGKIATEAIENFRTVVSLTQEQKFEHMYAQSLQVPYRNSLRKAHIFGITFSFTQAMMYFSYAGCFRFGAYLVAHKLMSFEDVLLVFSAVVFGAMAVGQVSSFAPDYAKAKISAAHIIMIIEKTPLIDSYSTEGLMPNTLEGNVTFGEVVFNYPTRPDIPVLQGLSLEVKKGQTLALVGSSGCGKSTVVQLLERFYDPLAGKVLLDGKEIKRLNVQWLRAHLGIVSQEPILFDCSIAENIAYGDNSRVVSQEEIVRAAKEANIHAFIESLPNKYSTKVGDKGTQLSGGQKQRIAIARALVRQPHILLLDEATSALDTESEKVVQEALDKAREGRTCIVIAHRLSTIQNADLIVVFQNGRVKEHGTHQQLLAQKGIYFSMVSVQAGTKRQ", "conditions": "literature (Hyafil F et al., Cancer Res 1993); cited from earlier work"}, "[13]": {"test_system": "EPG85-257RDB cells", "experiment": "Modulation of chemoresistance to daunorubicin (SRB proliferation assay, IC50/DMF)", "type": "cell-based, human", "conditions": "GF120918; classical MDR, P-gp-expressing cells (Table 2, Figure 3B)", "procedure": "as §3, with “After samples were washed 5 times with water and air-dried, 50 µl 0.4 % SRB (Sigma, St. Louis, MO) in 1 % acetic acid was added and samples were incubated for 10 min at room temperature. Unbound dye was eliminated by washing the plates 5 times with 1 % acetic acid.” left out, “To determine the IC50-value, the absorbance difference of control cells without drug was set to be 100 %.” left out\nThe cellular sensitivity to mitoxantrone and daunorubicin was assessed by determining the IC50 values without or with increasing concentrations of TPS-A or GF120918 as a positive control in the different cancer cell variants. […]"}}}
{"smiles": "COc1cc2c(cc1OC)CN(CCc1ccc(NC(=O)c3cccc4c(=O)c5cccc(OC)c5[nH]c34)cc1)CC2", "note": "[GF120918, reference compound]", "values": [{"measurement": "effect on drug accumulation", "setting": "[1]", "value": "only a weak dosage-depending effect"}, {"measurement": "inhibition at 1 µM", "setting": "[2]", "value": 80, "unit": "%"}, {"measurement": "transporter inhibiting effect (mitoxantrone accumulation)", "setting": "[3]", "value": "very weak transporter inhibiting effect"}, {"measurement": "inhibition at 1 µM", "setting": "[4]", "value": 75, "unit": "%"}, {"measurement": "increase of drug accumulation with respect to control cells", "setting": "[5]", "value": 40, "unit": "%"}, {"measurement": "inhibition of the mitoxantrone pump activity", "setting": "[6]", "value": "completely"}, {"measurement": "growth inhibitory effect", "setting": "[7]; 1 µM GF120918 alone, any of the drug-sensitive or drug-resistant cancer cell lines tested", "value": "no growth inhibitory effect"}, {"measurement": "cross-resistance to the MDR modulator", "setting": "[7]; multidrug-resistant tumor cell lines", "value": "No evidence of cross-resistance"}, {"measurement": "PS transport (C6-NBD-PS outward translocation)", "setting": "[8]", "value": "did not affect PS transport significantly"}, {"measurement": "PS analogue outward translocation (MDR1 Pgp lipid transport activity)", "setting": "[9]", "value": "significant reduction"}, {"measurement": "amount of C6-NBD-PS in the BSA containing medium (outward translocation)", "setting": "[10]", "value": "sharp and highly significant decrease"}, {"measurement": "restoration of drug sensitivity (mitoxantrone resistance)", "setting": "[11]; 1 µM GF120918, EPG85-257RNOV and EPG85-257RDB, same for MCF7/BCRP clone 8 and MCF-7/AdrVp", "value": "not sufficient to restore drug sensitivity completely"}, {"measurement": "resensitization to mitoxantrone", "setting": "[11]; GF120918, BCRP- and P-gp-expressing stomach and mamma carcinoma-derived cell lines (Table 2, Figure 3A)", "value": "dose-depending resensitization"}, {"measurement": "effect on sensitivity to daunorubicin", "setting": "[11]; GF120918, the other human gastric and breast cancer cell lines (not EPG85-257RDB)", "value": "no significant effect"}, {"measurement": "concentration capable of restoring drug sensitivity (as low as)", "setting": "[12]", "value": 100, "unit": "nM"}, {"measurement": "sensitization to daunorubicin", "setting": "[13]", "value": "considerable dose-depending sensitization"}]}
